Test results reported in US12186402B2, “Polymer materials for delivery of short-chain fatty acids to the intestine for applications in human health and treatment of disease” (The University of Chicago, priority 2017, dated 2025).

System: allergy to peanuts induced in mice
Experiment: Induced peanut allergy model: challenge with peanut protein; core body temperature, peanut-specific IgE, IgG1, mMCP-1
Format: in vivo, mouse

Question: How did the “physiological markers and symptoms of an allergic reaction” value (Example 8: allergic mice, 2.83 mg per g body weight daily by oral gavage, FIG. 17) turn out when `CCCC(=O)[O-].[Na+]` [sodium butyrate] was run?
Answer: Its value is “not effective”.

Question: What about the “core body temperature over time after challenge with peanut protein (protection)” value (FIG. 19, allergic mice, daily oral treatment) of the same molecule?
Answer: The value was “no protection”.
